The target of the assay is human NAMPT (Homo sapiens, UniProt P43490). Briefly: Human recombinant enzyme assay (NMN fluorescence biochemical assay, activation of NAMPT). Summed up:
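Activation of recombinant human NAMPT (6 nM) with 2.5 mM ATP, 20 μM PRPP and 150 μM nicotinamide in 50 mM HEPES pH 7.2, 1 mM DTT, 1 mM CHAPS, 50 mM NaCl, 100 mM MgCl2; 60 min, ambient temperature. NMN formed was derivatized with acetophenone/KOH/formic acid, fluorescence read at 355/460 nm after 40 min.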

Where [1] appears, read: Table A, human recombinant NAMPT, NMN formation, 60 min.
Setting [2] is: Table A, human recombinant NAMPT, NMN formation, 60 min, read-out: EC50 Human.

SMILES strings stand for the structures. pEC50: −log10 of the molar value. Read-outs that look alike come from different tables or passages of the source.

In general, pEC50 refers to the negative decadic logarithm of the EC50, by convention in mol/L.

Chain of human NAMPT (P43490 whole entry): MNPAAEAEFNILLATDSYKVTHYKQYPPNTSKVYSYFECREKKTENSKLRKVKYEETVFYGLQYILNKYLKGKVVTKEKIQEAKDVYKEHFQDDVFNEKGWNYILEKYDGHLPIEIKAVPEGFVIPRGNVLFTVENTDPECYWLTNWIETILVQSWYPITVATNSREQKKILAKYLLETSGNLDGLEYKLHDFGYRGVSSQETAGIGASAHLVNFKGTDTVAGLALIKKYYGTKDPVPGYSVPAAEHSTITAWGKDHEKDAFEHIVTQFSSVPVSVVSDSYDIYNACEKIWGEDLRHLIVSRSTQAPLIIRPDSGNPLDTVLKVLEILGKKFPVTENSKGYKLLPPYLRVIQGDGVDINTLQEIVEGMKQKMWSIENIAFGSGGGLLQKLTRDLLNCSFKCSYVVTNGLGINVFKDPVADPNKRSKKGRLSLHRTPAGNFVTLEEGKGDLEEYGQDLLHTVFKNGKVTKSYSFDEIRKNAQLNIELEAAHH

For `O=C(NCCCCC1CCN(C(=O)c2ccno2)CC1)NCc1ccc(Cl)cc1` [Compound 306, 1-(4-chlorobenzyl)-3-(4-(1-(isoxazole-5-carbonyl)piperidin-4-yl)butyl)urea], the “AC1.4 Human” value under setting [1] amounted to 0.4 µM. Further, the pEC50 under setting [2] was 5.92. The corresponding values for `O=C(NCCCCC1CCN(c2ccccn2)CC1)NCc1ccc(Cl)cc1` [Compound 307, 1-(4-chlorobenzyl)-3-(4-(1-(pyridin-2-yl)piperidin-4-yl)butyl)urea] are 1.9 µM and 5.14.

`O=C(NCCCCC1CCN(c2ccncc2)CC1)NCc1ccc(Cl)cc1` [Compound 308, 1-(4-chlorobenzyl)-3-(4-(1-(pyridin-4-yl)piperidin-4-yl)butyl)urea]: the “AC1.4 Human” value under setting [1] came to 2.2 µM. Further, the pEC50 under setting [2] was 5.30. The corresponding values for `Cc1ccc(C(=O)N2CCC(CCCCNC(=O)NCc3ccc(Cl)cc3)CC2)cn1` [Compound 309, 1-(4-chlorobenzyl)-3-(4-(1-(6-methylnicotinoyl)piperidin-4-yl)butyl)urea] are 2.1 µM and 5.19. The corresponding values for `Cc1ncccc1CC(=O)N1CCC(CCCCNC(=O)NCc2ccc(Cl)cc2)CC1` [Compound 310, 1-(4-chlorobenzyl)-3-(4-(1-(2-(2-methylpyridin-3-yl)acetyl)piperidin-4-yl)butyl)urea] are 0.8 µM and 5.39. Consider `Cc1ccc(CC(=O)N2CCC(CCCCNC(=O)NCc3ccc(Cl)cc3)CC2)cn1` [Compound 311, 1-(4-chlorobenzyl)-3-(4-(1-(2-(6-methylpyridin-3-yl)acetyl)piperidin-4-yl)butyl)urea], for which the “AC1.4 Human” value under setting [1] came to 1.2 µM. For the same molecule, the negative logarithm of the EC50 (pEC50) under setting [2] was 5.47. The corresponding values for `Cn1cc(C(=O)N2CCC(CCCCNC(=O)NCc3ccc(Cl)cc3)CC2)nn1` [Compound 312, 1-(4-chlorobenzyl)-3-(4-(1-(1-methyl-1H-1,2,3-triazole-4-carbonyl)piperidin-4-yl)butyl)urea] are 1.5 µM and 5.27. The corresponding values for `Cc1ccccc1CC(=O)N1CCC(CCCCNC(=O)NCc2ccc(Cl)cc2)CC1` [Compound 313, 1-(4-chlorobenzyl)-3-(4-(1-(2-(o-tolyl)acetyl)piperidin-4-yl)butyl)urea] are 0.7 µM and 5.85. With `O=C(NCCCCC1CCN(C(=O)c2ccccc2C(F)F)CC1)NCc1ccc(Cl)cc1` [Compound 314, 1-(4-chlorobenzyl)-3-(4-(1-(2-(difluoromethyl)benzoyl)piperidin-4-yl)butyl)urea], the “AC1.4 Human” value under setting [1] is 0.5 µM. Under setting [2], the pEC50 is 6.15. The corresponding values for `O=C(NCCCCC1CCN(C(=O)c2ccccc2-c2nnn[nH]2)CC1)NCc1ccc(Cl)cc1` [Compound 315, 1-(4-(1-(2-(1H-tetrazol-5-yl)benzoyl)piperidin-4-yl)butyl)-3-(4-chlorobenzyl)urea] are 0.9 µM and 5.70. The corresponding values for `O=C(NCCCCC1CCN(C(=O)Cc2cn[nH]c2)CC1)NCc1ccc(Cl)cc1` [Compound 316, 1-(4-(1-(2-(1H-pyrazol-4-yl)acetyl)piperidin-4-yl)butyl)-3-(4-chlorobenzyl)urea] are 1.4 µM and 5.19. The corresponding values for `O=C(NCCCCN1CCN(C(=O)c2ccccc2)CC1)NCc1ccc(Cl)cc1` [Compound 317, 1-(4-(4-benzoylpiperazin-1-yl)butyl)-3-(4-chlorobenzyl)urea] are 4.2 µM and 4.60. For the molecule `O=C(NCCCCC1CCN(c2nn[nH]n2)CC1)NCc1ccc(Cl)cc1` [Compound 318, 1-(4-(1-(2H-tetrazol-5-yl)piperidin-4-yl)butyl)-3-(4-chlorobenzyl)urea], under setting [1], the “AC1.4 Human” value is 3.9 µM. For the same molecule, the pEC50 under setting [2] was 5.06. The corresponding values for `Cc1cccc(C)c1C(=O)N1CCC(CCCCNC(=O)NCc2ccc(Cl)cc2)CC1` [Compound 319, 1-(4-chlorobenzyl)-3-(4-(1-(2,6-dimethylbenzoyl)piperidin-4-yl)butyl)urea] are 0.8 µM and 6.10. The corresponding values for `Cc1ccccc1C(=O)N1CCC(CCCCNC(=O)NCc2cnco2)CC1` [Compound 320, 1-(4-(1-(2-methylbenzoyl)piperidin-4-yl)butyl)-3-(oxazol-5-ylmethyl)urea] are 0.1 µM and 5.85. The corresponding values for `Cc1ccccc1C(=O)N1CCC(CCCCNC(=O)NCc2ccc(C(N)=O)cc2)CC1` [Compound 321, 4-((3-(4-(1-(2-methylbenzoyl)piperidin-4-yl)butyl)ureido)methyl)benzamide] are 0.1 µM and 5.68. Consider `Cc1ccccc1C(=O)N1CCC(CCCCNC(=O)NCc2ccncc2)CC1` [Compound 323, 1-(4-(1-(2-methylbenzoyl)piperidin-4-yl)butyl)-3-(pyridin-4-ylmethyl)urea], for which the “AC1.4 Human” value under setting [1] amounted to 0.2 µM. For the same molecule, the negative-log EC50 (pEC50) under setting [2] was 5.80. The corresponding values for `[2H]C([2H])(NC(=O)NCCCCC1CCN(C(=O)c2ccccc2)CC1)c1cnco1` [Compound 324, 1-(4-(1-benzoylpiperidin-4-yl)butyl)-3-(oxazol-5-ylmethyl-d2)urea] are 0.2 µM and 5.72. The corresponding values for `COc1ccc(CNC(=O)NC2CC3(C2)CC(c2nnc(-c4ccccc4)o2)C3)cc1` (stereo not shown) [Compound 325, 1-(4-Methoxybenzyl)-3-(6-(5-phenyl-1,3,4-oxadiazol-2-yl)spiro[3.3]heptan-2-yl)urea] are 2.4 µM and 4.51.

For the molecule `COc1ccc(CNC(=O)NC2CC3(C2)CC(c2nc(-c4ccccc4)co2)C3)cc1` (stereo not shown) [Compound 326, 1-(4-methoxybenzyl)-3-(6-(4-phenyloxazol-2-yl)spiro[3.3]heptan-2-yl)urea], the “AC1.4 Human” value under setting [1] was found to be 4.5 µM.

As to `COc1ccc(CNC(=O)NC2CC3(C2)CC(c2nc4ccccc4o2)C3)cc1` (stereo not shown) [Compound 327, 1-(6-(benzo[d]oxazol-2-yl)spiro[3.3]heptan-2-yl)-3-(4-methoxybenzyl)urea], the negative logarithm of the EC50 (pEC50) is 4.76. Further, the “AC1.4 Human” value under setting [1] came out at 4.1 µM. For `O=C(NCc1ccc(Cl)cc1)NC1CC2(C1)CC(C(O)c1ccccc1)C2` (stereo not shown) [Compound 328, 1-(4-chlorobenzyl)-3-(6-(hydroxy(phenyl)methyl)spiro[3.3]heptan-2-yl)urea], the “AC1.4 Human” value under setting [1] stood at 1.2 µM. In addition, the pEC50 under setting [2] was 5.37. On to `O=C(NCc1ccc(Cl)cc1)NC1CC2(CC(Cc3cnccn3)C2)C1` (stereo not shown) [Compound 331, 1-(4-chlorobenzyl)-3-(6-(pyrazin-2-ylmethyl)spiro[3.3]heptan-2-yl)urea], for which, under setting [1], the “AC1.4 Human” value came to 2.2 µM. Besides, the negative-log EC50 (pEC50) under setting [2] is 5.89. As to `N#Cc1cnn(CC2CC3(C2)CC(NC(=O)NCc2ccc(Cl)cc2)C3)c1` (stereo not shown) [Compound 333, 1-(4-chlorobenzyl)-3-(6-((4-cyano-1H-pyrazol-1-yl)methyl)spiro[3.3]heptan-2-yl)urea], the pEC50 was 5.36. Under setting [1], the “AC1.4 Human” value was 1.8 µM. Take `COc1ccc(CNC(=O)NC2CC3(CC(Cc4ccc(C)cc4)C3)C2)cc1` (stereo not shown) [Compound 334, 1-(4-methoxybenzyl)-3-(6-(4-methylbenzyl)spiro[3.3]heptan-2-yl)urea]: under setting [1], the “AC1.4 Human” value came out at 2.3 µM. Further, the negative logarithm of the EC50 (pEC50) under setting [2] is 5.57. The corresponding values for `COc1ccc(CNC(=O)NC2CC3(CC(Cc4cccc(C)c4)C3)C2)cc1` (stereo not shown) [Compound 335, 1-(4-Methoxybenzyl)-3-(6-(3-methylbenzyl)spiro[3.3]heptan-2-yl)urea] are 1.1 µM and 5.66. The corresponding values for `COc1ccc(CNC(=O)NC2CC3(CC(Cc4ccccc4C)C3)C2)cc1` (stereo not shown) [Compound 336, 1-(4-methoxybenzyl)-3-(6-(2-methylbenzyl)spiro[3.3]heptan-2-yl)urea] are 0.7 µM and 5.68. The corresponding values for `COc1ccc(CNC(=O)NC2CC3(CC(Cc4ccc(C)nc4)C3)C2)cc1` (stereo not shown) [Compound 337, 1-(4-methoxybenzyl)-3-(6-((6-methylpyridin-3-yl)methyl)spiro[3.3]heptan-2-yl)urea] are 1.0 µM and 4.58. In the case of `Cc1ccc(C(C)(O)C2CC3(CC(NC(=O)NCc4ccc(Cl)cc4)C3)C2)cn1` (stereo not shown) [Compound 338, 1-(4-chlorobenzyl)-3-(6-(1-hydroxy-1-(6-methylpyridin-3-yl)ethyl)spiro[3.3]heptan-2-yl)urea], the “AC1.4 Human” value under setting [1] stood at 6.4 µM. Also, the negative logarithm of the EC50 (pEC50) under setting [2] is 4.99. The corresponding values for `O=C(NCc1ccc(Cl)cc1)NC1CC2(CC(Cn3cncn3)C2)C1` (stereo not shown) [Compound 339, 1-(6-((1H-1,2,4-triazol-1-yl)methyl)spiro[3.3]heptan-2-yl)-3-(4-chlorobenzyl)urea] are 4.6 µM and 5.19.

As to `O=C(NCc1ccc(Cl)cc1)NC1CC2(CC(Cc3ncccn3)C2)C1` (stereo not shown) [Compound 340, 1-(4-chlorobenzyl)-3-(6-(pyrimidin-2-ylmethyl)spiro[3.3]heptan-2-yl)urea], the pEC50 is 5.25. For the same molecule, the “AC1.4 Human” value under setting [1] stood at 3.7 µM.

Consider `O=C(NCc1ccc(Cl)cc1)NC1CC2(C1)CC(Oc1ccncc1)C2` (stereo not shown) [Compound 341, 1-(4-chlorobenzyl)-3-(6-(pyridin-4-yloxy)spiro[3.3]heptan-2-yl)urea], for which, under setting [1], the “AC1.4 Human” value turned out to be 3.9 µM. The negative-log EC50 (pEC50) under setting [2] was 5.70.

Consider `CS(=O)(=O)C1CC2(CC(NC(=O)NCc3ccc(Cl)cc3)C2)C1` (stereo not shown) [Compound 342, 1-(4-chlorobenzyl)-3-(6-(methylsulfonyl)spiro[3.3]heptan-2-yl)urea], for which the “AC1.4 Human” value under setting [1] stood at 33.1 µM. Besides, the pEC50 under setting [2] was 4.25. For the molecule `O=C(NCc1ccc(Cl)cc1)NC1CC2(C1)CC(Oc1cccnc1)C2` (stereo not shown) [Compound 343, 1-(4-chlorobenzyl)-3-(6-(pyridin-3-yloxy)spiro[3.3]heptan-2-yl)urea], the pEC50 is 5.25. Also, the “AC1.4 Human” value under setting [1] amounted to 3.0 µM.

Values taken from US20230348369A1 (Cytokinetics, Inc., priority 2020, published 2023).
